Results published in patent publication US8404673B2, “Carbocyclic GlyT1 receptor antagonists” (Hoffmann-La Roche Inc., priority 2009, dated 2013).
Like-named read-outs stand apart in the source and are kept apart here.

Target: T1, mGlyT-1b (Mus musculus, UniProt P28571)
T1 construct: host or cells: Flp-in-CHO
T1 sequence (P28571 1-651 isoform P28571-2): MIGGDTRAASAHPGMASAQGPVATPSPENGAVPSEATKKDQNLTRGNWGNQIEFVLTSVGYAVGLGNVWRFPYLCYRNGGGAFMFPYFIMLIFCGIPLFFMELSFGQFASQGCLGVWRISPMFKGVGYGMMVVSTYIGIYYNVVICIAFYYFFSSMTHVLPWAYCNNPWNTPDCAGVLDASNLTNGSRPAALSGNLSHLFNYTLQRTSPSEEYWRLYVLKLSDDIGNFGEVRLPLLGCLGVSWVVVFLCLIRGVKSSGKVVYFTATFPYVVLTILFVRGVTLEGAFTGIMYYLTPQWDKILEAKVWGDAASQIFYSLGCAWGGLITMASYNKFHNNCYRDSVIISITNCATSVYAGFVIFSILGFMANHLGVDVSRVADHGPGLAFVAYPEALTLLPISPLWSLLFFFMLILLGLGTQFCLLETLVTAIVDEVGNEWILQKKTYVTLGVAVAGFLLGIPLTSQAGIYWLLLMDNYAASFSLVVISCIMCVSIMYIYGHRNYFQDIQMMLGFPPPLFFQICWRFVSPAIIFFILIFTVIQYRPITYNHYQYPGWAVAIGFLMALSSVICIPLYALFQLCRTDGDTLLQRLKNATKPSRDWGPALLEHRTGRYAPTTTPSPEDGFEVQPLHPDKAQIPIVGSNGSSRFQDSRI
Assay: Glycine Uptake Inhibition Assay (mGlyT-1b)
Format: cell-based

SMILES | IC50 (IC50 data) [nM] | further results
COc1cc(C(F)(F)F)cc(SC)c1C(=O)N[C@@H]1CCC[C@@H]1N1CCCC1 (racemic) [Example 55, 2-Methoxy-6-methylsulfanyl-N-((1RS,2SR)-2-pyrrolidin-1-yl-cyclopentyl)-4-trifluoromethyl-benzamide] | 84.6 | 
COc1cc(C(F)(F)F)cc(SC)c1C(=O)N[C@@H]1CCC[C@@H]1NC1CCC1 (racemic) [Example 61, N-((1RS,2SR)-2-Cyclobutylamino-cyclopentyl)-2-methoxy-6-methylsulfanyl-4-trifluoromethyl-benzamide] |  | IC50 (read-out: IC50 data): 65.9 nM
COc1cc(C(F)(F)F)cc(SC)c1C(=O)N[C@@H]1CCC[C@@H]1NC1CCCC1 (racemic) [Example 65, N-((1RS,2SR)-2-Cyclopentylamino-cyclopentyl)-2-methoxy-6-methylsulfanyl-4-trifluoromethyl-benzamide] |  | IC50 (read-out: IC50 data): 56.4 nM
CCc1cc(C(F)(F)F)ccc1C(=O)N[C@H]1CCC[C@H]1NC1CCCC1 (racemic) [Example 89, cis-N-(2-Cyclopentylamino-cyclopentyl)-2-ethyl-4-trifluoromethyl-benzamide] |  | IC50 (read-out: IC50 data): 79.4 nM
O=C(N[C@H]1CCC[C@H]1N1CCCC1)c1ccc(C(F)(F)F)cc1C1CC1 (racemic) [Example 91, 2-Cyclopropyl-cis-N-(2-pyrrolidin-1-yl-cyclopentyl)-4-trifluoromethyl-benzamide] | 45.3 | 
CCc1cccc(C2CC2)c1C(=O)N[C@H]1CCC[C@H]1N1CCCC1 (racemic) [Example 98, cis-2-Cyclopropyl-6-ethyl-N-(2-pyrrolidin-1-yl-cyclopentyl)-benzamide] | 80.1 | 
COc1cc(C(F)(F)F)cc(Br)c1C(=O)N[C@H]1CCC[C@H]1N1CCCC1 (racemic) [Example 101, 2-Bromo-6-methoxy-N-cis-(2-pyrrolidin-1-yl-cyclopentyl)-4-trifluoromethyl-benzamide] | 94.8 | 
O=C(N[C@H]1CCC[C@H]1NC1CCCC1)c1ccc(C(F)(F)F)cc1C1CC1 (racemic) [Example 102, N-((1SR,2RS)-2-Cyclopentylamino-cyclopentyl)-2-cyclopropyl-4-trifluoromethyl-benzamide] |  | IC50 (read-out: IC50 data): 35.1 nM
CSc1cc(C(F)(F)F)cc(C(F)(F)F)c1C(=O)N[C@H]1CCC[C@H]1N1CCCC1 (racemic) [Example 104, cis-2-Methylsulfanyl-N-(2-pyrrolidin-1-yl-cyclopentyl)-4,6-bis-trifluoromethyl-benzamide] | 18.9 | 
CSc1cc(C(F)(F)F)cc(C(F)(F)F)c1C(=O)N[C@H]1CCC[C@H]1NC1CCCC1 (racemic) [Example 134, N-((cis)-2-Cyclopentylamino-cyclopentyl)-2-methylsulfanyl-4,6-bis-trifluoromethyl-benzamide] |  | IC50 ([3H]-glycine uptake, Flp-in-CHO cells transfected with mGlyT-1b cDNA, 20 min preincubation at 22° C., read-out: IC50 data): 95.7 nM
CCc1cc(C(F)(F)F)ccc1C(=O)N[C@H]1CCC[C@H]1N1CCCC1 (relative stereo) [Example 80, cis-2-Ethyl-N-(2-pyrrolidin-1-yl-cyclopentyl)-4-trifluoromethyl-benzamide] | 89.6 | 
CCc1cccc(C)c1C(=O)N[C@H]1CCC[C@H]1N1CCCC1 (relative stereo) [Example 94, cis-2-Ethyl-6-methyl-N-(2-pyrrolidin-1-yl-cyclopentyl)-benzamide] | 98.4 | 
Cc1cc(C(F)(F)F)cc(C(F)(F)F)c1C(=O)N[C@H]1CCC[C@H]1N1CCCC1 (relative stereo) [Example 103, cis-2-Methyl-N-(2-pyrrolidin-1-yl-cyclopentyl)-4,6-bis-trifluoromethyl-benzamide] | 24.9 | 
O=C(N[C@H]1CCC[C@H]1N1CCCC1)c1c(F)cc(C(F)(F)F)cc1C(F)(F)F (relative stereo) [Example 105, cis-2-Fluoro-N-(2-pyrrolidin-1-yl-cyclopentyl)-4,6-bis-trifluoromethyl-benzamide] | 75.1 | 
O=C(N[C@H]1CCC[C@H]1N1CCCC1)c1c(Cl)cc(C(F)(F)F)cc1Cl (relative stereo) [Example 108, cis-2,6-Dichloro-N-(2-pyrrolidin-1-yl-cyclopentyl)-4-trifluoromethyl-benzamide] | 88.2 | 
